Patent US20240316047A1, “INHIBITORS OF RNA HELICASE DHX9 AND USES THEREOF” (ACCENT THERAPEUTICS, INC., priority 2022, published 2024)

Molecular target: Human recombinant DHX9 protein (Homo sapiens (Human), UniProt Q08211)
Experiment: DHX9 ATPase assay (ADP-Glo)
Format: biochemical
Settings: for IC50: read-out: DHX9 Biochemical Inflection Point

Human recombinant DHX9 protein, sequence (Q08211 whole entry): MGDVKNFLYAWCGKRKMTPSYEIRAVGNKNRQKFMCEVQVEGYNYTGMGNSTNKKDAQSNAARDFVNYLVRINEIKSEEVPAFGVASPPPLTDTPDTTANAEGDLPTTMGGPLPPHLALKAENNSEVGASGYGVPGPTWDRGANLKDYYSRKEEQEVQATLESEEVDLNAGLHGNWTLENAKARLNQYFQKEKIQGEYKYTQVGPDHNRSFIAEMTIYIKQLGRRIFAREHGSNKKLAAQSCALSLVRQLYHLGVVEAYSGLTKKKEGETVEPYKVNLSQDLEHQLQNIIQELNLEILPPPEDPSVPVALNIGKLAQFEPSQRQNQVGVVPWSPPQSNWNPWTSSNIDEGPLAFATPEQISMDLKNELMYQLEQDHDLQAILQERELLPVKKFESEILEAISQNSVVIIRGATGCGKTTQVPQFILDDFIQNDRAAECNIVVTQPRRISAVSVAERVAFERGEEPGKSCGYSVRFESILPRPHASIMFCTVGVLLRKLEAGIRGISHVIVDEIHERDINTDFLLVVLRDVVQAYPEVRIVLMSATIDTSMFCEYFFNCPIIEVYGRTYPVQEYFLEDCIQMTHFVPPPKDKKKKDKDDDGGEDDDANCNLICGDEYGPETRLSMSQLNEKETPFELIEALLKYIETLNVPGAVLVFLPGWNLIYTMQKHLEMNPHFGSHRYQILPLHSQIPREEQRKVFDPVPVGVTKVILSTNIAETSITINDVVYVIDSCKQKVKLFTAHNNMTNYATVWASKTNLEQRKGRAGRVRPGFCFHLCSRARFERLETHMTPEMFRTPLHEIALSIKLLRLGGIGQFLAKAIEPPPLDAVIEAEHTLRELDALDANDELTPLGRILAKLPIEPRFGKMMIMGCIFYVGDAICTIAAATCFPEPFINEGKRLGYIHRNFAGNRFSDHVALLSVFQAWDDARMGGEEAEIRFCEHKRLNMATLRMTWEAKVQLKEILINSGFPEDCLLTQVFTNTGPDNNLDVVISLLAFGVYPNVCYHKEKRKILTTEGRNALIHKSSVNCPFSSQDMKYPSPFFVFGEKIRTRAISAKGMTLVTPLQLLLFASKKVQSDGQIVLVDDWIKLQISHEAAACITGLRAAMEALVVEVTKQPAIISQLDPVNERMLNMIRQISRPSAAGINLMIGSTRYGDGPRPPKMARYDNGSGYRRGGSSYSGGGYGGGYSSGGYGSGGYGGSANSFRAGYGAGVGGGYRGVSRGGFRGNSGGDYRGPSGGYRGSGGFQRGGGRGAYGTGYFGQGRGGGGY

SMILES	DHX9 Biochemical Max Inhibition	IC50 [nM]
CS(=O)(=O)Nc1cc(Cl)cc(NC(=O)c2cnn(C3CCNCC3)c2)c1 [Example 145, N-(3-chloro-5-(methylsulfonamido)phenyl)-1-(piperidin-4-yl)-1H-pyrazole-4-carboxamide]	67.9%	58
CCS(=O)(=O)Nc1cc(Cl)cc(NC(=O)c2cc(-c3ncc(F)cc3OCc3cncnc3)c(C)s2)c1 [Example 623]	94.5	3.9
CC(C)(C)OC(=O)NC1CC2(C1)CC(n1cc(C(=O)Nc3cc(Cl)cc(NS(C)(=O)=O)c3)cn1)C2 (centres unmarked) [Example 318]	64.4%	
Cc1sc(C(=O)Nc2cc(Cl)cc(NS(C)(=O)=O)c2)cc1-c1ncc(N2CC(F)(F)C2)cc1OCC(F)(F)F [Example 707]	67.1	28.3
CN(C)C(=O)c1cccc(OCc2cccc(F)c2)c1-n1cc(C(=O)Nc2cc(Cl)cc(NS(C)(=O)=O)c2)cn1 [Example 717]	68.1	199
CN1CCC(c2ccc(-n3cc(C(=O)Nc4cc(Cl)cc(NS(C)(=O)=O)c4)cn3)nc2)CC1=O (centres unmarked) [Example 266]	64.4%	13.1
Cn1cc(C(=O)Nc2cc(Cl)cc(NS(C)(=O)=O)c2)cc1-c1ncccc1Oc1cccnc1 [Example 655]	67.8	11.4
CS(=O)(=O)Nc1cc(Cl)cc(NC(=O)c2coc(-c3ccccc3)c2)c1 [Example 125]	56.7%	330
CS(=O)(=O)Nc1cc(Cl)cc(NC(=O)c2cc(CN)n(-c3ccccn3)c2)c1 [Example 181]	57.4%	9.6
CS(=O)(=O)Nc1cc(Cl)cc(NC(=O)c2cnn(-c3ncccc3OCc3ncc[nH]3)c2)c1 [Example 252]	72.1%	48.9
Cn1cc(C(=O)Nc2cc(Cl)cc(NS(C)(=O)=O)c2)cc1-c1ccc(N2CC(CS(C)(=O)=O)C2)cn1 [Example 695]	69.7	8.5
CS(=O)(=O)Nc1cc(Cl)cc(NC(=O)c2cccc(-n3cccn3)c2)c1 [Example 117]	55.5%	104
Cc1cc(C(=O)Nc2cc(Cl)cc(NS(C)(=O)=O)c2)cn1-c1ccc(N2CCOCC2)cn1 [Example 93]	70.6%	1.7
Cc1cccc2cc(C(=O)Nc3cc(Cl)cc(NS(C)(=O)=O)c3)cn12 [Example 304]	59.1%	399
Cc1sc(C(=O)Nc2cc(Cl)cc(NS(C)(=O)=O)c2)cc1-c1ncc(OC(C)(C)C)cn1 [Example 559]	72.175	33.4
CCS(=O)(=O)Nc1cc(Cl)cc(NC(=O)c2cc(-c3ncc(OC)cn3)c(C)s2)c1 [Example 353]	69.2%	24.2
Cc1sc(C(=O)Nc2cc(Cl)cc(NS(C)(=O)=O)c2)cc1-c1ccc(P(C)(C)=O)cn1 [Example 647]	72.9	
Cn1cc(C(=O)Nc2cc(Cl)cc(NS(C)(=O)=O)c2)cc1-c1ncc(N2CCN(C(=O)C3CC3)CC2)cc1F [Example 714]	68.7	5.3
CCc1cncc(COc2cccnc2-c2cc(C(=O)Nc3cc(Cl)cc(NS(C)(=O)=O)c3)cn2C)c1 [Example 730]	72.6	11.7
Cc1cccnc1-c1nc(C(=O)Nc2cc(Br)cc(NS(C)(=O)=O)c2)cn1C [Example 96, N-(3-bromo-5-(methylsulfonamido)phenyl)-1-methyl-2-(3-methylpyridin-2-yl)-1H-imidazole-4-carboxamide]	52.8%	253

SMILES	DHX9 Biochemical Max Inhibition	IC50 [nM]
Cc1cc(C(=O)Nc2cc(Cl)cc(NS(C)(=O)=O)c2)cn1-c1ncc(N2CC(F)(F)C2)cc1F [Example 420]	95	17.7
Cc1sc(C(=O)Nc2cc(Cl)cc(NS(=O)(=O)CCO)c2)cc1-c1ncccc1OCc1cncc(F)c1 [Example 626]	75.7	4.2
CS(=O)(=O)Nc1cc(F)cc(NC(=O)c2cc(-c3ccccc3)cs2)c1 [Example 73]	63%	189
Cc1cc(C(=O)Nc2cc(Cl)cc(NS(C)(=O)=O)c2)cn1-c1ncc(S(C)(=O)=O)cn1 [Example 656]	71.3	30.7
CCS(=O)(=O)Nc1cc(Cl)cc(NC(=O)c2cc(-c3ncc(F)cc3OCc3nccs3)c(C)s2)c1 [Example 622]	62.9	23
Cc1sc(C(=O)Nc2cc(Cl)cc(NS(C)(=O)=O)c2)cc1-c1ncc(N2CC[Si](C)(C)CC2)cc1F [Example 473]	54.5	313
Cn1cc(C(=O)Nc2cc(Cl)cc(NS(C)(=O)=O)c2)cc1-c1ncc(N2CC(C(F)(F)F)C2)cn1 [Example 493]	67	24.8
CS(=O)(=O)Nc1cc(Cl)cc(NC(=O)c2cnn(-c3ccc(N4CC5(COC5)C4)cc3OCc3cccc(F)c3)c2)c1 [Example 722]	74.4	19.1
Cc1sc(C(=O)Nc2cc(Cl)cc(NS(C)(=O)=O)c2)cc1-c1ncc(N2CC(F)(F)C2)cc1F [Example 532, N-(3-chloro-5-methanesulfonamidophenyl)-4-[5-(3,3-difluoroazetidin-1-yl)-3-fluoropyridin-2-yl]-5-methylthiophene-2-carboxamide]	70.8	26.4
CS(=O)(=O)Nc1cc(Cl)cc(NC(=O)c2cnn(C3CCN(CC(F)(F)F)CC3)c2)c1 [Example 316]	66.6%	205
CN1CCN(C(=O)c2cc(C(=O)Nc3cc(Cl)cc(NS(C)(=O)=O)c3)cn2-c2ccccn2)CC1 [Example 665]	70.1	30.9
Cn1cc(C(=O)Nc2cc(Cl)cc(NS(C)(=O)=O)c2)cc1-c1ccc(N2CC(C)(F)C2)cn1 [Example 688]	67.9	16.1
CN1CC(Oc2cnc(-c3cc(C(=O)Nc4cc(Cl)cc(NS(C)(=O)=O)c4)cn3C)c(F)c2)C1 [Example 611]	65.3	3.8
CCS(=O)(=O)Nc1cc(Cl)cc(NC(=O)c2cc(-c3ncc(F)cc3C)c(C)s2)c1 [Example 350]	67.1%	
Cc1sc(C(=O)Nc2cc(Cl)cc(NS(C)(=O)=O)c2)cc1-c1ncc(N2CCC3(CC2)COC3)cc1F [Example 474]	70.4	11.7
CCS(=O)(=O)Nc1cc(Cl)cc(NC(=O)c2cc(-c3ncc(F)cn3)c(C3CC3)s2)c1 [Example 449]	69.5	336
Cc1sc(C(=O)Nc2cc(Cl)cc(NS(C)(=O)=O)c2)cc1-c1ncc(OC(C)(C)C(=O)O)cn1 [Example 670]	73.4	6.2
CS(=O)(=O)Nc1cc(Cl)cc(NC(=O)c2cnn(-c3ncc(N4CCOCC4)cn3)c2)c1 [Example 394]	73.7	24.8
CS(=O)(=O)Nc1cc(Cl)cc(NC(=O)c2cc(-c3ncccc3CC(=O)N3CCC3)cs2)c1 [Example 382]	75.9%	
